The source of these data is patent US20230406803A1, “TROPOLONE DERIVATIVES AND TAUTOMERS THEREOF FOR IRON REGULATION IN ANIMALS” (Kinesid Therapeutics, Inc, priority 2020, published 2023).

Data set [1] has as its system DMT1-deficient Caco-2 cells. Put plainly: shDMT1-Caco2 55Fe transport assay. Type of data set: cell-based. The settings on record: Caco-2. The text has this: Assay 2: shDMT1-Caco2 ^55Fe Transport Assay to Assess Ligand Ability in Transporting Fe (III)
Cells: DMT1-deficient Caco-2 cells (alias: “shDMT1,” or “4A” cells) were from Grillo et al. Science, 2017, and were cryopreserved in liquid nitrogen prior to use.
Reagents and supplies: ^55FeCl3 was obtained from PerkinElmer (Boston, MA). Iron(III) chloride (FeCl3) hexahydrate was obtained from Sigma. Dulbecco's Modified Eagle Medium (DMEM), fetal bovine serum (FBS), L-glutamine, MEM nonessential amino acids, penicillin-streptomycin, G418, formic acid, methanol, high-purity water, ammonium formate, dimethyl sulfoxide (DMSO) were purchased from Fisher Scientific. Propranolol, atenolol and carbutamide were obtained from Sigma-Aldrich Chemical Company (St Louis, MO). Scintillation cocktail was obtained from Research Product International Co. (Mount Prospect, IL). Stericup filter system (PES membrane, 0.22 um pore size) was purchased from Fisher Scientific. Corning item #3378 24-well transwell insert plates.
Test articles: known compounds hinokitiol and deferiprone were purchased from Sigma. They are tested side by side with the small molecule ligands disclosed in this application. DMSO stocks (10 mM, which is 1,000× of the 10 μM dose level) of hinokitiol or test articles were prepared. A stock solution of 25 mM deferiprone in DMSO was prepared. The DMSO stock solutions were stored at −20° C. or below when not in use.
The growth medium was prepared according to the following table
Apical media (serum free DMEM, 10 mM MES, pH 6.5) was prepared. Apical master mix media was prepared fresh with the addition of 200 nM ^55Fe before each experiment. For the negative control propranolol and atenolol wells, 200 nM of non-radioactive iron was used.
The basolateral media was serum-free DMEM, 10 mM HEPES, 2% bovine serum albumin (BSA), pH 7.4.
For each experiment, cells were seeded into the 24-well transwell plates (0.5 mL of 50,000 cells/mL) with growth media. The basolateral companion plate was loaded with 1 mL of growth media. After 12-24 hr, both the apical and basolateral chamber were replaced with growth media. The apical media was changed 3× per week for 21-28 days, including a media change exactly 48 hr before the assay date.
On the assay day, the TEER values were measured and the average TEER value was obtained. Individual wells with TEER value >35% lower than the average of all wells were excluded. For the qualified wells, the apical layer (twice) and basolaterial (once) chambers were washed with PBS. The basolateral companion plate was then filled with 1 mL of basolateral media. Via addition down the side-wall of the apical well, 300 μL per well of the apical assay master mix, with the indicated dose level of test article, was added. Each dose was tested in triplicate. The plates were incubated (5% CO2 and 90% humidity at 37° C.) for the indicated timepoints. At each indicated timepoint, the basolateral supernatant was gently mixed via pipetting, and 200 μL of the basolateral supernatant was transferred to scintillation vials. To each scintillation counting vial, 5 mL of scintillation cocktail fluid was added. For each scintillation vial, the radioactivity (CPM) was determined with liquid scintillation counter LS6500. The counting time per vial was 5 min.
All raw CPM values are divided by the average value of blank DMSO solution to give a fold of change above the DMSO value. The mean and standard deviation of each compound at each concentration level and at each time point measured was calculated to give the fold change (fc) value. For rank order compounds, the fc value of a ligand at 4 h time point is further divided by the fold change (fc) value of hinokitiol (a positive control compound) at an equimolar concentration to arrive at the FC (normalized fold of change) value. Data reported in Tables 1 and 2 is 4 hr time point FC=fc-ligand @ 3 uM/fc-hino @ 3 μM, and FC hino=1.
(Caco-2 cells form a polarised layer with tight junctions and transporters.)

Data set [2] can be described thus: Ligand facilitated Fe(III) efflux from liposomes. Format: biochemical. More on the design: unit not given here. The note with it: efflux rate k at 10 μM ligand concentration; ferrozine absorbance 562 nm, 120 min kinetic read. The protocol:
Assay 1: Ligand Facilitated Fe(III) Efflux from Liposomes
Preparation of POPC (1 palmitoyl-2-oleoyl-sn-glycero-3 phosphocholine): Cholesterol Liposomes
A 1M buffer solution of MES and Tris was prepared by dissolving 121.14 grams of Tris base and 213.25 grams of MES hydrate in 500 mL of MilliQ water and adjusted to pH7.0 using an […] HCl solution before bringing the total volume of the solution to 1 L. A 500 mM solution of FeCl3 was prepared by dissolving 0.811 grams of anhydrous FeCl3 in 10 mL of a 0.1M H2SO4 aqueous solution. Inside buffer is prepared in a 50 mL falcon tube, which was added with 25 mL of MilliQ water, 1.61 g of sodium citrate, 1.5 mL of the above FeCl3 solution, and 2.5 mL of the 1M MES/Tris HCl buffer (pH=7.0), and finally additional MilliQ H2O to bring to a 50 mL final volume.
Lipid solution is prepared by dissolving 206.9 mg of POPC (1-palmitoyl-2-oleoyl-sn-glycero-3-phosphocholine) and 8.6 mg of cholesterol in 10 mL of ethanol.
The lipids solution and the inside buffer solution are independently loaded into 10 mL luer lock syringes for loading into a virgin cartridge on a Precision Nanosystems NanoAssembler to prepare unilamaller liposomes with the following parameters: 7.5 mL total volume, 1.5:1 mixing ratio of inside buffer:lipids solution, 8 mL/min flow rate, ambient temperature, 0.35 mL start waste, and 0.05 mL of end waste. 7.5 mL of liposomes is harvested for purification on a 6-inch long, 1-inch diameter Sephadex G-50 column wetted in 600 mM sodium ascorbate and 50 mM MES/Tris HCl pH 7.0 buffer. This buffer also serves as the column running buffer. The crude liposome solution is carefully loaded with minimal volume of running buffer above the top of the Sphadex, allowed to enter the matrix, and the column is run with the continued addition of running buffer. The eluting liposomes, observed as a milky and turbid solution, are collected until free iron begins to elute (observed as a deep purple color) and the fractions are pooled for phosphorus quantitation.
Determination of Phosphorus Content:
Phosphorus content of eluted liposomes was determined by the process outlined below. 10 μL of liposome elution and a running buffer blank are added to a 5 mL glass vial containing 450 μL of a 8.9 M aqueous H2SO4 solution, the mixture is heated to 225° C. for 25 minutes in an aluminum heat block to hydrolyze POPC and cooled for 5 minutes. 200 μL of a 30% hydrogen peroxide aqueous solution is added to each vial and heated to 225° C. for 25 minutes. After cooling, the phosphorus content was determined using an Abcam Phosphate Assay kit, with buffer subtracted phosphorus levels determined against a standard curve of phosphate included in the kit. Liposomes were diluted to 1 mM phosphate in Running Buffer for use in assays after accounting for dilutions made during phospholipid digestion.
Determination of the Iron Transporting Rate Constant of the Ligands:
Determination of the rate at which a small molecule ligand liberates (transport) Ferric iron from liposomes is performed in clear bottom black 384-well plates on a Spectramax i3x set to read the absorbance at 562 nm in the kinetic mode every 60 seconds for 120 minutes. 1 μL of serially diluted DMSO stock solution of a small molecule ligand is added to wells in triplicate to give the final concentrations of 40, 20, 10, 5, 2.5, and 1.25 uM of the ligand at 80 μL final volume, followed by addition of 1 μL of 100 mM Ferrozine in water to give a final concentration of 1 mM ferrozine. 78 μL of liposomes diluted to 1 mM phosphorus in running buffer is added to wells as quickly as possible (using a digital repeater multichannel pipette) with the kinetic read initiated as rapidly as possible after addition of liposomes to all wells. Typically, eight compounds at six concentrations are tested in triplicate simultaneously. […]

SMILES strings stand for the structures.

As to `Cc1c(C2CC2)cccc(=O)c1[O-].[Na+]`, in data set [1], the “Caco2 shDMT1 transport FC @ 3 μM, 4 h” value was 0.5-1. Further, the “Liposome Fe transport kefflux at 10 μM” value in data set [2] is 0.1-5.
`O=c1cccc(C2CCOCC2)cc1O`: the “Caco2 shDMT1 transport FC @ 3 μM, 4 h” value in data set [1] is given as 0.01-0.5. Besides, the “Liposome Fe transport kefflux at 10 μM” value in data set [2] is on record as 10-25.
Taken in the same sequence, the figures for `O=c1ccccc(OC2CC3(CC3)C2)c1O` [drawing 259] were 1-5 and 10-25.
Turning to `O=c1ccc(C2CCCO2)ccc1O` (stereo not drawn), in data set [1], the “Caco2 shDMT1 transport FC @ 3 μM, 4 h” value is on record as 0.01-0.5. The “Liposome Fe transport kefflux at 10 μM” value in data set [2] is reported as 7.5-10.
Take `O=c1cccc(OC2CC2)cc1O`: in data set [1], the “Caco2 shDMT1 transport FC @ 3 μM, 4 h” value is 1-5. In addition, the “Liposome Fe transport kefflux at 10 μM” value in data set [2] was 5-7.5.
`O=c1ccccc(C2CCOC2)c1O` (stereo not drawn): the “Caco2 shDMT1 transport FC @ 3 μM, 4 h” value in data set [1] is given as 0.01-0.5. Moreover, in data set [2], the “Liposome Fe transport kefflux at 10 μM” value is given as less than 0.1.
On to `CCc1cccc(Cl)c(=O)c1O`, for which the “Caco2 shDMT1 transport FC @ 3 μM, 4 h” value in data set [1] was 0.01-0.5. For the same compound, in data set [2], the “Liposome Fe transport kefflux at 10 μM” value is recorded as 7.5-10.
As to `O=c1ccc(OC2CC2)ccc1O`, the “Caco2 shDMT1 transport FC @ 3 μM, 4 h” value in data set [1] is listed as 0.5-1. Further, the “Liposome Fe transport kefflux at 10 μM” value in data set [2] was 10-25.
For `O=c1ccccc(C2CCOCC2)c1O` [drawing 183], the “Caco2 shDMT1 transport FC @ 3 μM, 4 h” value in data set [1] is recorded as 1-5. For the same compound, the “Liposome Fe transport kefflux at 10 μM” value in data set [2] is 0.1-5.
Taken in the same sequence, the figures for `Cc1ccc(C2CC2)cc(O)c1=O` were 0.5-1 and 7.5-10.
As for `CC(=O)N1CCC(c2ccc(O)c(=O)cc2)CC1`, in data set [1], the “Caco2 shDMT1 transport FC @ 3 μM, 4 h” value is 0.01-0.5. In addition, the “Liposome Fe transport kefflux at 10 μM” value in data set [2] is 5-7.5.
Taken in the same sequence, the figures for `O=c1ccccc([C@H]2CCCO2)c1O` were 0.1-5 and 7.5-10.
Regarding `CCc1ccc(O)c(=O)c(C)c1`, in data set [1], the “Caco2 shDMT1 transport FC @ 3 μM, 4 h” value was 1-5. Also, the “Liposome Fe transport kefflux at 10 μM” value in data set [2] is listed as 5-7.5.
On the same counts, the results for `O=c1cccc(OC2COC2)cc1O` are 0.01-0.5 and 0.1-5.
`CCc1cccc(F)c(=O)c1O`: in data set [1], the “Caco2 shDMT1 transport FC @ 3 μM, 4 h” value is reported as 0.01-0.5. In data set [2], the “Liposome Fe transport kefflux at 10 μM” value is given as 10-25.
For `CCc1cc(F)ccc(=O)c1O`, the “Caco2 shDMT1 transport FC @ 3 μM, 4 h” value in data set [1] was 1-5. Besides, the “Liposome Fe transport kefflux at 10 μM” value in data set [2] is reported as 7.5-10.
Consider `CC(C)c1ccc(C(F)(F)F)c(=O)c(O)c1`, for which the “Caco2 shDMT1 transport FC @ 3 μM, 4 h” value in data set [1] is 0.01-0.5. Also, in data set [2], the “Liposome Fe transport kefflux at 10 μM” value is 5-7.5.
`O=c1ccc(C2CC3CCC(C2)O3)ccc1O` (stereo not drawn): the “Caco2 shDMT1 transport FC @ 3 μM, 4 h” value in data set [1] is listed as 0.01-0.5. The “Liposome Fe transport kefflux at 10 μM” value in data set [2] is on record as 0.1-5.
With `CCc1cccc(C)c(=O)c1O` [drawing 202], the “Caco2 shDMT1 transport FC @ 3 μM, 4 h” value in data set [1] was 0.01-0.5. Besides, in data set [2], the “Liposome Fe transport kefflux at 10 μM” value is 5-7.5.
On the same counts, the results for `Cc1cccc(Cl)c(=O)c1O` are 0.01-0.5 and 5-7.5.
In the case of `O=c1c(O)ccc(OC2CCC2)cc1F`, the “Caco2 shDMT1 transport FC @ 3 μM, 4 h” value in data set [1] is given as 0.01-0.5. The “Liposome Fe transport kefflux at 10 μM” value in data set [2] is 10-25.
Taken in the same sequence, the figures for `O=c1c(O)cc(C2CC2)ccc1F` [drawing 209] were 0.01-0.5 and 7.5-10.
Taken in the same sequence, the figures for `Cc1ccc(C(F)(F)F)c(=O)c(O)c1` were 0.01-0.5 and 7.5-10.
Turning to `O=c1cccc(C2CCCO2)cc1O` (stereo not drawn), the “Caco2 shDMT1 transport FC @ 3 μM, 4 h” value in data set [1] is 0.01-0.5. In addition, the “Liposome Fe transport kefflux at 10 μM” value in data set [2] is on record as 7.5-10.
`CC(C)c1ccc(F)c(=O)c(O)c1F`: in data set [1], the “Caco2 shDMT1 transport FC @ 3 μM, 4 h” value is listed as 0.01-0.5. In addition, the “Liposome Fe transport kefflux at 10 μM” value in data set [2] was 7.5-10.
On the same counts, the results for `O=c1ccc([C@@H]2CCC[C@H]2O)ccc1O` are 0.01-0.5 and 7.5-10.
As for `CCOC(=O)N1CCC(c2ccc(O)c(=O)cc2)CC1`, in data set [1], the “Caco2 shDMT1 transport FC @ 3 μM, 4 h” value is on record as 0.01-0.5. Further, in data set [2], the “Liposome Fe transport kefflux at 10 μM” value is 5-7.5.
